Reference: patent publication US9718828B2 (MERCK SHARP & DOHME CORP., priority 2011, dated 2017)
Where a name gives a salt, the structure may show the parent alone. Read-outs that look alike come from different tables or passages of the source.

Biological target: Btk enzyme (His-Btk) (Homo sapiens (Human), UniProt Q06187)
Assay: Btk enzyme activity, IMAP fluorescence polarization assay (Assay Method A)
[1] = read-out: EC50 Btk activity values - Assay Method A, IMAP-FP, 60 min pre-incubation, 5 μM ATP, class 100-1000 is given as ≧100 nM-<1 μM

Btk enzyme (His-Btk), sequence (Q06187 whole entry): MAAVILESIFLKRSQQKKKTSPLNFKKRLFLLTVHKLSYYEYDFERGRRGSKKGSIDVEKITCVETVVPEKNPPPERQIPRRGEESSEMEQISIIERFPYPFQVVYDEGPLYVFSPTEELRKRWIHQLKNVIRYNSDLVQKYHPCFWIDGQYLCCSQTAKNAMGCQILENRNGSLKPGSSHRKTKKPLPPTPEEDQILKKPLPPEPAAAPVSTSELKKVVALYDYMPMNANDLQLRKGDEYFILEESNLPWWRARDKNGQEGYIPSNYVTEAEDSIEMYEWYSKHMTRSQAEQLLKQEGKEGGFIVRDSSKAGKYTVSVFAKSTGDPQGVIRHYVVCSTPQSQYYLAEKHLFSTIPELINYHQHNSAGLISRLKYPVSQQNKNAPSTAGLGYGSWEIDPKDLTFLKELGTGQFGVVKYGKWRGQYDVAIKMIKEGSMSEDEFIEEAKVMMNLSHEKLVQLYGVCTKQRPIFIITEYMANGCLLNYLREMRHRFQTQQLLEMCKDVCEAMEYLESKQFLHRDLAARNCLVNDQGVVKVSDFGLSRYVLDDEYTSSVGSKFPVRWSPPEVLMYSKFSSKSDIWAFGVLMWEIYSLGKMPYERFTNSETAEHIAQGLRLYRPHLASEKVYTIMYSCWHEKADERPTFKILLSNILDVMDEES

Structure (SMILES)	EC50 [1]	EC50
CCNC(=O)N1C[C@H](c2nc(-c3ccc(C(=O)Nc4ccccn4)cc3)c3c(N)nccn23)CC[C@@H]1C (relative stereo) [Example 193, (cis)-5-(8-amino-1-(4-(pyridin-2-ylcarbamoyl)phenyl)imidazo [1,5-a]pyrazin-3-yl)-N-ethyl-2-methylpiperidine-1-carboxamide, TFA salt]	< 10 nM	–
CC1(C(=O)N2CCC[C@@H](c3nc(-c4ccc(C(=O)Nc5cc(C(F)(F)F)ccn5)cc4)c4c(N)ncc(-c5ccco5)n34)C2)COC1 [Example 311, (R)-4-(8-amino-5-(furan-2-yl)-3-(1-(3-methyloxetane-3-carbonyl)piperidin-3-yl)imidazo[1,5-a]pyrazin-1-yl)-N-(4-(trifluoromethyl)pyridin-2-yl)benzamide]	< 10 nM	–
CC1CCc2nc(NC(=O)c3ccc(-c4nc([C@H]5CC[C@H](O)CC5)n5ccnc(N)c45)cc3)sc2C1 (stereo partly drawn) [Example 14, 4-(8-amino-3-((trans)-4-hydroxycyclohexyl)imidazo[1,5-a]pyrazin-1-yl)-N-(6-methyl-4,5,6,7-tetrahydrobenzo[d]thiazol-2-yl)benzamide]	< 10 nM	–
CCC(=O)NCC(C)c1nc(-c2ccc(C(=O)Nc3cc(C(F)(F)F)ccn3)cc2)c2c(N)nccn12 (stereo not drawn) [Example 130, 4-(8-amino-3-(1-propionamidopropan-2-yl)imidazo[1,5-a]pyrazin-1-yl)-N-(4-(trifluoromethyl)pyridin-2-yl)benzamide]	< 10 nM	–
COCCC(=O)N1CCC2(CC1)CC2c1nc(-c2ccc(C(=O)Nc3ccccn3)cc2)c2c(N)nccn12 (stereo not drawn) [Example 151, 4-(8-amino-3-(6-(3-methoxypropanoyl)-6-azaspiro[2.5]octan-1-yl)imidazo[1,5-a]pyrazin-1-yl)-N-(pyridin-2-yl)benzamide]	–	100 to 1000 nM
COCCC(=O)N1CCC[C@@H](c2nc(-c3ccc(C(=O)Nc4ccccn4)cc3)c3c(N)nccn23)C1 [Example 50, (R)-4-(8-amino-3-(1-(3-methoxypropanoyl)piperidin-3-yl)imidazo[1,5-a]pyrazin-1-yl)-N-(pyridin-2-yl)benzamide]	–	< 10 nM
Cc1nc(-c2ccc(C(=O)Nc3cc(C(F)(F)F)ccn3)cc2)c2c(N)ncc(C(=O)NC3CCN(C)CC3)n12 [Example 295, 8-amino-3-methyl-N-(1-methylpiperidin-4-yl)-1-(4-(4-(trifluoromethyl)pyridin-2-ylcarbamoyl)phenyl)imidazo[1,5-a]pyrazine-5-carboxamide]	–	100 to 1000 nM
Nc1ncnc2c1c(-c1ccc(C(=O)Nc3cc(C(F)(F)F)ccn3)cc1)nn2[C@@H]1CCCN(C(=O)C(Cl)(Cl)Cl)C1 [Example 265, (R)-4-(4-amino-1-(1-(2,2,2-trichloroacetyl)piperidin-3-yl)-1H-pyrazolo[3,4-d]pyrimidin-3-yl)-N-(4-(trifluoromethyl)pyridin-2-yl)benzamide]	–	10 to 100 nM
CCc1cnc(NC(=O)c2ccc(-c3nc([C@H]4CC[C@H](OC(C)=O)CC4)n4ccnc(N)c34)cc2)s1 [Example 38, (trans)-4-(8-amino-1-(4-(5-ethylthiazol-2-ylcarbamoyl)phenyl)imidazo [1,5-a]pyrazin-3-yl)cyclohexyl acetate]	–	10 to 100 nM
CC(C)C(=O)N1CCC(c2nc(-c3ccc(C(=O)Nc4ccccn4)cc3)c3c(N)nccn23)CC1 [Example 129, 4-(8-amino-3-(1-isobutyrylpiperidin-4-yl)imidazo[1,5-a]pyrazin-1-yl)-N-(pyridin-2-yl)benzamide]	–	100 to 1000 nM
N#Cc1ccnc(NC(=O)c2ccc(-c3nc(C4CCOC4)n4ccnc(N)c34)cc2)c1 (stereo not drawn) [Example 33, 4-(8-amino-3-(tetrahydrofuran-3-yl)imidazo[1,5-a]pyrazin-1-yl)-N-(4-cyanopyridin-2-yl)benzamide]	–	10 to 100 nM
CC[C@H](C)C(=O)N1CCC[C@@H](c2nc(-c3ccc(C(=O)Nc4ccccn4)cc3)c3c(N)nccn23)C1 [Example 58, 4-(8-amino-3-((R)-1-((S)-2-methylbutanoyl)piperidin-3-yl)imidazo[1,5-a]pyrazin-1-yl)-N-(pyridin-2-yl)benzamide]	–	10 to 100 nM

More lines, now with the values ahead:

EC50 [1]	EC50	Structure (SMILES)
< 10 nM	–	COCCC(=O)N1C[C@@H](O)C[C@@H](c2nc(-c3ccc(C(=O)Nc4cc(C(F)(F)F)ccn4)cc3)c3c(N)nccn23)C1 (relative stereo) [Example 181, 4-(8-amino-3-((cis)-5-hydroxy-1-(3-methoxypropanoyl)piperidin-3-yl)imidazo[1,5-a]pyrazin-1-yl)-N-(4-(trifluoromethyl)pyridin-2-yl)benzamide]
–	< 10 nM	Nc1nccn2c([C@@H]3CCCN(C(=O)C4CC4)C3)nc(-c3ccc(C(=O)Nc4cc(C(F)(F)F)ccn4)cc3)c12 [Example 103, (R)-4-(8-amino-3-(1-(cyclopropanecarbonyl)piperidin-3-yl)imidazo[1,5-a]pyrazin-1-(trifluoromethyl)pyridin-2-yl)benzamide]
–	10 to 100 nM	Nc1nccn2c([C@@H]3CCCN(CC4CC4)C3)nc(-c3ccc(C(=O)Nc4cc(C(F)(F)F)ccn4)cc3)c12 [Example 140, (R)-4-(8-amino-3-(1-(cyclopropylmethyl)piperidin-3-yl)imidazo[1,5-a]pyrazin-1-yl)-N-(4-(trifluoromethyl)pyridin-2-yl)benzamide, TFA salt]
< 10 nM	–	CCOC(=O)N1CCC[C@@H](c2nc(-c3ccc(C(=O)Nc4ccccn4)cc3)c3c(N)nccn23)C1 [Example 47, (R)-ethyl 3-(8-amino-1-(4-(pyridin-2-ylcarbamoyl)phenyl)imidazo[1,5-a]pyrazin-3-yl)piperidine-1-carboxylate]
–	< 10 nM	NCCOCCOCCOCCOCCC(=O)N1CCC[C@@H](c2nc(-c3ccc(C(=O)Nc4cc(C(F)(F)F)ccn4)cc3)c3c(N)nccn23)C1 [Example 85, (R)-4-(8-amino-3-(1-(1-amino-3,6,9,12-tetraoxapentadecane)piperidin-3-yl)imidazo[1,5-a]pyrazin-1-yl)-N-(4-(trifluoromethyl)pyridin-2-yl)benzamide]
< 10 nM	–	CS(=O)(=O)CCNC(=O)C1CCCN(c2nc(-c3ccc(C(=O)Nc4cc(C(F)(F)F)ccn4)cc3)c3c(N)nccn23)C1 (stereo not drawn) [Example 240, 1-(8-amino-1-(4-(4-(trifluoromethyl)pyridin-2-ylcarbamoyl)phenyl)imidazo[1,5-a]pyrazin-3-yl)-N-(2-(methylsulfonyl)ethyl)piperidine-3-carboxamide, TFA salt]
–	< 10 nM	Nc1nccn2c([C@@H]3CCCN(C(=O)C4CN(C(=O)c5ccccc5)C4)C3)nc(-c3ccc(C(=O)Nc4cc(C(F)(F)F)ccn4)cc3)c12 [Example 84, (R)-4-(8-amino-3-(1-(1-benzoylazetidine-3-carbonyl)piperidin-3-yl)imidazo[1,5-a]pyrazin-1-yl)-N-(4-(trifluoromethyl)pyridin-2-yl)benzamide]
< 10 nM	–	C[C@H]1CC[C@@H](c2nc(-c3ccc(C(=O)Nc4cc(C5CC5)ccn4)cc3)c3c(N)nccn23)CN1C(=O)C1CCC1 (relative stereo) [Example 197, 4-(8-amino-3-((cis)-1-(cyclobutanecarbonyl)-6-methylpiperidin-3-yl)imidazo[1,5-a]pyrazin-1-yl)-N-(4-cyclopropylpyridin-2-yl)benzamide, TFA salt]
< 10 nM	–	CCOC(=O)N1C[C@H](c2nc(-c3ccc(C(=O)Nc4cc(C5CC5)ccn4)cc3)c3c(N)nccn23)CC[C@@H]1C (relative stereo) [Example 199, (cis)-ethyl 5-(8-amino-1-(4-(4-cyclopropylpyridin-2-ylcarbamoyl)phenyl)imidazo [1,5-a]pyrazin-3-yl)-2-methylpiperidine-1-carboxylate, TFA salt]
–	10 to 100 nM	CC(C)CNC(=O)C(=O)N1CCC[C@@H](c2nc(-c3ccc(C(=O)Nc4cc(C5CC5)ccn4)cc3)c3c(N)nccn23)C1 [Example 112, (R)-4-(8-amino-3-(1-(2-(isobutylamino)-2-oxoacetyl)piperidin-3-yl)imidazo[1,5-a]pyrazin-1-yl)-N-(4-cyclopropylpyridin-2-yl)benzamide]
–	< 10 nM	CCCc1ccnc(NC(=O)c2ccc(-c3nc(C4CCOCC4)n4ccnc(N)c34)cc2)c1 [Example 24, 4-(8-amino-3-(tetrahydro-2H-pyran-4-yl)imidazo [1,5-a]pyrazin-1-yl)-N-(4-propylpyridin-2-yl)benzamide]
–	< 10 nM	CCOC(=O)c1cnc(N)c2c(-c3ccc(C(=O)Nc4cc(C(F)(F)F)ccn4)cc3)nc([C@@H]3CCCN(C(=O)C4(C)COC4)C3)n12 [Example 299, (R)-ethyl 8-amino-3-(1-(3-methyloxetane-3-carbonyl)piperidin-3-yl)-1-(4-(4-(trifluoromethyl)pyridine-2-ylcarbamoyl)phenyl)imidazo[1,5-a]pyrazine-5-carboxylate]
< 10 nM	–	CCOC(=O)N1CCC[C@@H](c2nc(-c3ccc(C(=O)Nc4cc(C(F)(F)F)ccn4)cc3)c3c(N)ncnn23)C1 [Example 255, (R)-ethyl 3-(4-amino-5-(4-(4-(trifluoromethyl)pyridin-2-ylcarbamoyl)phenyl)imidazo[1,5-f][1,2,4]triazin-7-yl)piperidine-1-carboxylate]
< 10 nM	–	COCCNC(=O)C1CCCN(c2nc(-c3ccc(C(=O)Nc4cc(C(F)(F)F)ccn4)cc3)c3c(N)nccn23)C1 (stereo not drawn) [Example 232, 1-(8-amino-1-(4-(4-(trifluoromethyl)pyridin-2-ylcarbamoyl)phenyl)imidazo[1,5-a]pyrazin-3-yl)-N-(2-methoxyethyl)piperidine-3-carboxamide, TFA salt]
< 10 nM	–	Nc1nccn2c(N3CCCC(C(=O)N4CCCC(F)(F)C4)C3)nc(-c3ccc(C(=O)Nc4cc(C(F)(F)F)ccn4)cc3)c12 (stereo not drawn) [Example 243, 4-(8-amino-3-(3-(3,3-difluoropiperidine-1-carbonyl)piperidin-1-yl)imidazo[1,5-a]pyrazin-1-yl)-N-(4-(trifluoromethyl)pyridin-2-yl)benzamide, TFA salt]
